Measurements from patent publication US20220206013A1, “CYSTIC FIBROSIS URINE TEST” (Aarhus Universitet, priority 2019, published 2022).

Legend:
[1] = biological target: CFTR (Homo sapiens, UniProt P13569); assay: clinical
Protocol: Twelve healthy adult volunteers aged 22 to 59 years of both genders were tested. The volunteers were healthy and without any known CFTR protein mutations.
In addition, the venous acid-base status was checked.
The subjects then drank 200 mL of tap water. In addition, the venous acid-base status was checked.
The subjects then drank 200 mL of tap water.

[2] = system: CFTR wild type, CFTR knock out and pendrin knock-out mice; settings: WT mice; gavage 60 μmoles NaHCO3/25 g bodyweight; cumulative sample after 3 hours
Protocol: The experiments were performed in littermate mice bred from heterozygotes. Mice of both genders were used at an approximate age of 2 to 4 months.
The Pendrin KO mouse was produced by insertion of a neo-cassette replacing exon 8 in the Scl26a4 gene, leading to loss of pendrin expression as described in (Everett et al. 2001). It was purchased from The Jackson Laboratory, JAX stock #018424.
The global CFTR (CFTRG) KO mouse (CFTR S489X-; FABP-hCFTR) was purchased from The Jackson Laboratory, JAX stock #002364. This is a transgenic global CFTR KO mouse strain with expression of human CFTR (hCFTR) under the promoter activity of rat fatty acid binding protein 2, intestinal (Fabp2) promoter, which corrects the otherwise lethal intestinal phenotype in CFTR KO mice (Zhou et al. 1994).
Awake mice (animals as described under section A.) were manually restrained and a gavage needle was inserted into their stomach. […] Mice were then placed in metabolic cages and their urine collected for further measurement.
Urine was sampled and accumulated for 3 hr before measurement.

[3] = biological target: CFTR (homozygote mutation ΔF508) (Homo sapiens, UniProt P13569, DEL508-508); assay: CF urine test (oral bicarbonate gastric load) in adult CF patients, before and after CFTR modulator drug
Protocol: After 1 hr. urine samples were collected and the participant drank 200 ml of tap water. One hour later, urine samples were collected again and the participant drank further 200 ml of tap water. After three hours from the baseline the final urine sample were collected and the participants drank another 200 ml of tap water.
Nine adult CF patients aged 19 to 45 of both genders with the homozygote mutation ΔF508 were signed up for this test.
Three of the adult CF patients were treated with Orkambi® (400 mg lumacaftor/200 mg ivacaftor twice a day) for four weeks before testing the CF patients for a second time. These included patients of both genders between the age of 19 and 45.
Six of the adult CF patients were treated with Symkevi® (100 mg tezacaftor and 150 mg ivacaftor in the morning and 150 mg ivacaftor in the evening) for four weeks before testing the CF patients for a second time. These included patients of both genders between the age of 20 and 40.
Five ml of urine were given into a 250 ml glass flask.
A two-tailed paired t-test was used to test for significance. A p-value≤0.5 was chosen to represent significance.
At t=1 hr, the subjects were to void the first sample. […] The subjects then drank 200 mL of tap water. In addition, the venous acid-base status was checked.
At t=2 hrs, the subjects were to void the second sample. […] The subjects then drank 200 mL of tap water.
At t=3 hrs, the subjects were to void the third sample. […] The subjects then drank 200 mL of tap water.

[4] = system: Pendrin WT and KO mice; assay: Secretin-induced urine alkalisation and urine HCO3− excretion in anaesthetized pendrin WT/KO mice; assay type: in vivo, mouse
Protocol: (§1) Induction of anaesthesia was performed with i.p. injection of […] of a ketamine-xylazine mix (10 mg/ml and 1 mg/ml). An i.v. access was obtained by cannulation of one tail vein and the animals were kept in anaesthesia by a continuous rate infusion (CRI) corresponding to half of the induction dose pr. hour. Mice were infused with a solution containing 145 mM NaCl at pH 7.4 with a perfusion rate of 0.1 ml h^−1 via a syringe pump (Model 33 Twin syringe pump, Harvard Apparatus, USA).
(§2) Bladder catheterization was introduced and urine was collected every 5 minutes. Urinary pH was measured continuously throughout the experiment by placement of a micro pH electrode (pH-200, Unisense, Aarhus, DK) in the outflow of the catheter and the reference electrode was placed into the suprapubic operation wound (see FIG. 7A). Following a 30-min. control period, mice were injected intraperitoneally with either secretin (10 μg/25 g BW) or saline.
(§3) The urine was collected and pooled for 30 minutes allowing measurement of mean [HCO3^−] in the time periods 0-30, 30-60 and 60-90 after starting the experiment. In experiments with too low urine output, urine was pooled to allow analysis of [HCO3^−] before and after secretin application. Measurements were performed by a Corning 960 analyser (Savory et al. 1978) and calibrated to small volume samples of 50 μl or alternatively by a custom built infrared CO2-sensor based system for smaller volume samples (Trepiccione et al. 2017) (10-40 μl).
(§4) All values are presented as mean values ±standard error of mean (SEM). Due to a low number of observations in each series, n=7 in most, we were not able to determine whether the data followed a Gaussian distribution. Therefore, two-tailed Wilcoxon matched pairs signed rank test, in paired data, and two-tailed Mann-Whitney test, in unpaired data, were performed to test for significance.

[5] = system: global CFTR WT and KO mice; assay: Secretin-induced urine alkalisation and urine HCO3− excretion in global CFTR WT/KO mice; assay type: in vivo, mouse
Protocol: as §1, §2, §3, §4

[6] = system: tubule specific CFTR (CFTR-TS) WT and KO mice; assay: Secretin-induced urine alkalisation and urine HCO3− excretion in tubule specific CFTR WT/KO mice; assay type: in vivo, mouse
Excerpt: The Renal tubule specific CFTR (CFTRTS) KO mouse was produced in the laboratory of Dr. Kunzelmann and Dr. Schreiber in Regensburg/Germany and performed in compliance with the guidelines for the welfare of experimental animals issued by the Federal Government of Germany. C57BL6/J CFTR fl10 mice (Hodges et al. 2008) were bred in a C57Bl/6J background generated by the Cre/loxP-system with tissue specific Cre-recombinase expression from the Pax8 locus (Kos 2004; Bouchard et al. 2004).
as §1, §2, §3, §4

[7] = system: Pendrin WT and KO mice; assay: Secretin-induced urine alkalisation and urine HCO3− excretion in anaesthetized pendrin WT/KO mice; assay type: in vivo, mouse; remark: listed apart in the source
[8] = both, human, in vivo, po, 79 mg/kg
[9] = 6 CF patients, pre-symkevi, oral bicarbonate load

Chain of CFTR (P13569 whole entry): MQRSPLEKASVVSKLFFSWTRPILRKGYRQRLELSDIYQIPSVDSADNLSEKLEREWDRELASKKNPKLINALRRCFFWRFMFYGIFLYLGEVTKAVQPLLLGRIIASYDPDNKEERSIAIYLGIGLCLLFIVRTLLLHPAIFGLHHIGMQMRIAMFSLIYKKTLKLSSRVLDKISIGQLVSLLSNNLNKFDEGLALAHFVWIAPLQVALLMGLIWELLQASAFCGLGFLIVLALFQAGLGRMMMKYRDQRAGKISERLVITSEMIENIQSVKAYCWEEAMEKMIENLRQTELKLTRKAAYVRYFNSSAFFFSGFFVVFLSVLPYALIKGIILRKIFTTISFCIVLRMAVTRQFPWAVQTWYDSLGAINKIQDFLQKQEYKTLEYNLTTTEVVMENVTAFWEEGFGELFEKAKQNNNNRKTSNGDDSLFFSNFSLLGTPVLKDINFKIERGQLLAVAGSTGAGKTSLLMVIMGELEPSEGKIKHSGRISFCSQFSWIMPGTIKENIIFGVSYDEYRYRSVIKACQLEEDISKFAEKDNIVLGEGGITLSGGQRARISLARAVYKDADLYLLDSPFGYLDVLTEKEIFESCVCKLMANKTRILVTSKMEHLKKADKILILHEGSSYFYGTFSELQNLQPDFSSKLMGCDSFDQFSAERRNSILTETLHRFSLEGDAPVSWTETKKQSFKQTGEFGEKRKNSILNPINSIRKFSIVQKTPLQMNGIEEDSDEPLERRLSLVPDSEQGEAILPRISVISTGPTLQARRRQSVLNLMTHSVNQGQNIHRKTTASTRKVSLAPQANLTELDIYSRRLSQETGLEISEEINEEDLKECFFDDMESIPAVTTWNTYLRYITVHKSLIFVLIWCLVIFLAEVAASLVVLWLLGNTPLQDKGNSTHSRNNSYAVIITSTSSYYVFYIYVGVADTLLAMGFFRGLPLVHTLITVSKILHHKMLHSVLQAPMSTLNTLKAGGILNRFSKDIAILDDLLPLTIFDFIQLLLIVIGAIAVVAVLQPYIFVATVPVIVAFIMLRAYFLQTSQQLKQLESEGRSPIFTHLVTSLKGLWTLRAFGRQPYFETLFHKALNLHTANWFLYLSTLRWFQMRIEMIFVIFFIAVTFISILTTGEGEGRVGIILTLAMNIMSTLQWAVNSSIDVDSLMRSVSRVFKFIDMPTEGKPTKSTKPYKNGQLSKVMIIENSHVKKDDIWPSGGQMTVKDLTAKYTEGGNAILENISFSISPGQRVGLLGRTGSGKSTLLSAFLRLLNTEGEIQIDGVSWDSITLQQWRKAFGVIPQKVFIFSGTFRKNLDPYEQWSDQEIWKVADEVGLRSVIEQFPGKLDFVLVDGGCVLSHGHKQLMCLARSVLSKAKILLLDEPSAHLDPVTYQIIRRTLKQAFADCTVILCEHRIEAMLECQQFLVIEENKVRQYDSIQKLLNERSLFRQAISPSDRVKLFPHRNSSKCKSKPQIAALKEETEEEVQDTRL
Chain of CFTR (homozygote mutation ΔF508) (P13569 with tags, fused parts or gaps DEL508-508): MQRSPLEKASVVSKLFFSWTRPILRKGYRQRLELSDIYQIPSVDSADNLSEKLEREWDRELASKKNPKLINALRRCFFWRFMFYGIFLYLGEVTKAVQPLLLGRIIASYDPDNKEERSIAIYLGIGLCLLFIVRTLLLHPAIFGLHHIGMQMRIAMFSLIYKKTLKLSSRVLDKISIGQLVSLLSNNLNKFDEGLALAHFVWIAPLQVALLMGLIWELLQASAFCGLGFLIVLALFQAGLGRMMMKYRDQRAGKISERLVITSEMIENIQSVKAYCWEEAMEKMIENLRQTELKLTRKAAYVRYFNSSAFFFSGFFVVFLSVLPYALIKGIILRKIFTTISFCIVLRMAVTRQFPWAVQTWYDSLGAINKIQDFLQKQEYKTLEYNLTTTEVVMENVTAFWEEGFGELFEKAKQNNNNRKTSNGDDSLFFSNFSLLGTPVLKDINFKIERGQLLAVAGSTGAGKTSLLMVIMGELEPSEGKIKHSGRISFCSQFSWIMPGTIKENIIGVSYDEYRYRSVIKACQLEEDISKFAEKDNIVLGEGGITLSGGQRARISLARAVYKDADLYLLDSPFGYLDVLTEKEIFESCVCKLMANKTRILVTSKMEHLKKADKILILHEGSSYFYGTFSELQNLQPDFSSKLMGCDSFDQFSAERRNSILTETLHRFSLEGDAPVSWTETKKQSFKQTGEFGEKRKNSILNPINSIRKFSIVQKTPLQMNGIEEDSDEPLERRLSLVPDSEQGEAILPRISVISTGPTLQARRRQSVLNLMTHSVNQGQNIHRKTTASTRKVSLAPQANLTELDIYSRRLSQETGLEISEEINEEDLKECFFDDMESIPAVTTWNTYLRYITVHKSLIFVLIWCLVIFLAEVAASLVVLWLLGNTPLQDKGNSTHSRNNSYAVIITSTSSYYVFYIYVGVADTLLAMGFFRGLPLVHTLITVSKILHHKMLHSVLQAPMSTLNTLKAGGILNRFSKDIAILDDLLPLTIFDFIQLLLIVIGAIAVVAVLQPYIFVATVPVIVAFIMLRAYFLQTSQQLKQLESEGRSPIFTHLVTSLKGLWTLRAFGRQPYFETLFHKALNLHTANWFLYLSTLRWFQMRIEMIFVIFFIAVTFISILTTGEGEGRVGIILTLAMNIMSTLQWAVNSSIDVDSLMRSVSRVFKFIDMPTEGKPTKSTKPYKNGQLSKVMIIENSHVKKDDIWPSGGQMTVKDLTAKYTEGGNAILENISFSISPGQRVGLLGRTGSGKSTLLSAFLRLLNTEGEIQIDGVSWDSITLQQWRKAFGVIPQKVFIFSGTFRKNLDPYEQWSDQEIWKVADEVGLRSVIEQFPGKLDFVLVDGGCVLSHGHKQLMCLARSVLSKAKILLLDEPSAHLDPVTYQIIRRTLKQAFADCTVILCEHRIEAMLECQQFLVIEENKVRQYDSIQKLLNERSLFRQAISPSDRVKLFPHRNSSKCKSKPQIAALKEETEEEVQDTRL

O=C(O)O [bicarbonate, NaHCO3]
Cmax [1, 8]: 45000 to 65000 µM | Tmax [1, 8]: 2 h | AUC0-3 of excreted bicarbonate ([1]; healthy controls, oral 79 mg/kg BW NaHCO3, FIG. 5E): 85-123 mmol bicarbonate *t/L | urine bicarbonate concentration and urine pH [2]: found to increase | AUC0-3 of excreted bicarbonate [3, 9]: 22-45 mmol bicarbonate*t/L | peak value of urine bicarbonate (t=2 hrs) [3, 9]: 11 to 28 mM | AUC0-3 of excreted bicarbonate ([3]; CF patients before treatment with Orkambi, oral bicarbonate load): 14-58 mmol bicarbonate *t/L | Cmax [3, 8]: 14000 to 28000 µM | Tmax ([3]; both, human, in vivo, po, 79 mg/kg BW): 2 h

secretin
pHu alkalisation ([4]; pendrin KO mice, 10 μg/25 g BW i.p., FIG. 9B): no significant pHu alkalisations | urinary HCO3− excretion vs vehicle ([4]; pendrin KO mice, data not shown): No differences | urinary [HCO3−] vs vehicle ([4]; pendrin KO mice, n=7, FIG. 9D): No differences | late pHu effect ([4]; pendrin KO mice, starting some 20 minutes post-injection): urinary acidification | peak mean urinary alkalisation ([4]; pendrin WT mice, 10 μg/25 g BW i.p., n=7, FIG. 9A): 0.397±0.1 pH units | peak pHu increase ([4]; pendrin WT mice, 10 μg/25 g BW secretin i.p., FIG. 8C): ~0.38 units | urinary [HCO3−] ([4]; pendrin WT mice, 60 minutes following injection, vehicle 0.1697 ±0.1 mM, FIG. 9C): 1.08 ± 0.3 mM | urine HCO3− excretion rate ([4]; pendrin WT mice, 60 minutes post secretin injection, vehicle 1.18±0.57): 5.61±2.06 nmol/h/g BW | HCO3− excretion rate and urine [HCO3−] vs starting or control ([5]; global CFTR KO mice, at any point during the experiment, FIG. 10D): No significant differences | peak difference of pHu vs pH prior to treatment ([5]; global CFTR KO mice, peak 20 min post secretin, n=7, not differing from vehicle treated KO mice): 0.13 pH units | peak mean urinary alkalisation ([5]; global CFTR WT mice, 10 μg/25 g BW i.p., n=6, FIG. 10A): 0.53±0.24 pH units | urinary [HCO3−] increase vs control group (Δ30 minutes) ([5]; global CFTR WT mice, FIG. 10C): 3.02 ± 1.06 mM | ΔHCO3− excretion rate vs control ([5]; global CFTR WT mice, after 60 min, not reaching significance (p=0.09)): 5.55±3.25 nmol/h/g BW | pHu effect vs control experiments ([6]; CFTR-TS KO mice, FIG. 11B): no significant effect | urine [HCO3−] and urine HCO3− excretion rate ([6]; CFTRTS KO mice): No significant secretin-induced differences | peak mean urinary alkalisation ([6]; tubule specific CFTR WT mice, 10 μg/25 g BW i.p., n=7, FIG. 11A): 0.6518±0.11 | urine HCO3− excretion rate, mean difference vs baseline ([6]; tubule specific CFTR WT mice, 60 minutes after secretin treatment, data not shown): 5.623 ± 2.2 nmol/h/kg | urine [HCO3−] change after secretin administration ([6]; tubule specific CFTR WT mice, highest in first 30 minutes): pronounced increase | pHu change ([7]; dose of 0.1 μg i.p.): significant increase | pHu change with dose ([7]; doses of 1, 5 and 10 μg i.p.): increasing pHu alkalisations
